Key:
[1] = target: c-AMP phosphodiesterase (erythrocytes); assay: Inhibition of Cyclic AMP Phosphodiesterase; type: biochemical; conditions: erythrocyte phosphodiesterase extract
Procedure: The procedure used was that described by Arch, J. R. S. and Newsholme, E. A. in Biochem. J. 158, 603, (1976):
Erythrocytes were obtained from Na-citrate (16 mM; 0.1 ml/ml blood) anticoagulated blood by repeated centrifugation with removal of the buff coat and washing with an isotonic buffer (composition in mM: NaCl 13.7, KCl 4, CaCl2.2 H2 O 1.8, Na2 HPO4.12 H2 O 0.8, NaH2 PO4 0.2, MgSO4.7 H2 O 0.7, Hepes 3.4; pH 7.4).
The phosphodiesterase was extracted by mixing the erythrocytes with 4 volumes of 7 mM phosphate buffer, pH7.4, followed by sonification (3×10 sec; 100 W) and then centrifuging for 30 min at 4200×g.
All supernatants were diluted in the extraction medium and assayed for phosphodiesterase activity within 6 hours of preparation, using the radiochemical procedure described in the above mentioned reference.

[2] = system: PDE Ic (Ca^2 +/calmodulin-stimulated); conditions: guinea-pig heart; cited from earlier work
PDE III (cGMP-inhibited) = conditions: guinea-pig heart; cited from earlier work
[3] = system: PDE Ib (Ca^2 +/calmodulin-stimulated); conditions: porcine aorta; cited from earlier work
[4] = system: PDE IV (Ro 20-1724-inhibited); conditions: human monocyte; cited from earlier work

| Ki [1] [nM] | SMILES | also measured |
| --- | --- | --- |
| 10900 | COc1ccc(C2=CC(=O)CC2)cc1OC [Example 1, 1-(3,4-Dimethoxyphenyl)-cyclopent-1,2-ene-3-one] |  |
| 1100 | COc1ccc(C2=CC(=O)CC2)cc1OC1CCCC1 [Example 2, 1-(3-(Cyclopentyloxy-4-methoxy)-phenyl)-cyclopent-1,2-ene-3-one] |  |
| 700 | COc1ccc(C2=CC(=O)CCC2)cc1OC1CCCC1 [Example 3] |  |
| 3000 | COc1ccc(C2=CC(=O)CCC2)cc1OC [Example 4, 1-(3,4-Dimethoxyphenyl)-cyclohex-1,2-ene-3-one] |  |
| 2100 | COc1ccc(C2CCCCC2)cc1OC1CCCC1 [Example 5, 1-Methoxy-2-cyclopentyloxy-4-cyclohexyl-benzene] |  |
| 14100 | COc1ccc(C2CCCCC2)cc1OC [Example 6, 1,2-Dimethoxy-4-cyclohexyl-benzene] |  |
|  | Nc1nc2c(ncn2[C@@H]2O[C@@H]3COP(=O)(O)O[C@H]3[C@H]2O)c(=O)[nH]1 [cGMP] | Km [2]: 2000 nM; Km (PDE III (cGMP-inhibited)): 8 µM; Km [3]: 5 µM; Km [4]: 38 µM |

From patent US5362915A, “Phenyl-substituted cycloalkenyl compounds useful as PDE IV inhibitors” (SmithKline Beecham Pharma GmbH, priority 1990, dated 1994)
